Measurements taken from patent publication US20020164368A1, “Male contraceptive method and composition” (priority 2000, published 2002).

What was measured:
[1] = biological target: T1, Testicular bovine hyaluronidase (Bos taurus, UniProt Q2YDK3); assay: Hyaluronidase inhibition in vitro (chondroitin sulfate agar plate); type: biochemical
T1 construct: Testicular bovine hyaluronidase (Sigma Chemical Company); purchased Sigma Chemical Company; host or cells: bovine testes
T1 sequence (Q2YDK3 36-553): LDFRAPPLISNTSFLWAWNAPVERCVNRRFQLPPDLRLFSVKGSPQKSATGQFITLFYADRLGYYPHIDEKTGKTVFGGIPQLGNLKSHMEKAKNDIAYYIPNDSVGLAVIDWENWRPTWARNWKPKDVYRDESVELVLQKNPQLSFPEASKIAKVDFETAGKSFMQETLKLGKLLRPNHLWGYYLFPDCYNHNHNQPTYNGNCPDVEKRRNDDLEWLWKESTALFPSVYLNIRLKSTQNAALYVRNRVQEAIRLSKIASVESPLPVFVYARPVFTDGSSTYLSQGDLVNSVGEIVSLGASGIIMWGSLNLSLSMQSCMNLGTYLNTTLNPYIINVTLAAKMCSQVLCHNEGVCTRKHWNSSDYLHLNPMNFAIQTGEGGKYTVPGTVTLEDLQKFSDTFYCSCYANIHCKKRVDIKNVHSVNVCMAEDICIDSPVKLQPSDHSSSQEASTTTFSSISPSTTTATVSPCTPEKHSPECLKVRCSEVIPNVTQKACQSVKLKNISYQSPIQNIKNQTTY
Description: The inhibition of hyaluronidase was assessed using chondroitin sulfate as the enzyme substrate according to the following procedure. Agar plates containing chondroitin sulfate (0.1 percent) were prepared by the following method: water solutions of I percent agarose, 2 M sodium chloride (0.1 vol.), 1 M sodium acetate (pH 5.0, 0.1 vol), and sodium azide (0.5 mg/ml, 0.1 vol.) qe mixed and the mixture is brought to the boiling temperature. After cooling to about 65° C., a solution of chondroitin sulfate (10 mgtml, 0.1 vol.) is added. After cooling to about 45° C., the resulting mixture (20 ml) is poured onto a petri dish. The plates are allowed to cool to room temperature. A well 2 mm in diameter is then cut in the agar surface. […] A control using only the buffer solution without added test compound is also run. The plates are then incubated overnight (about 16 hours) at 37° C. The zones of hydrolysis of chondroitin sulfate by hyaluronidase are visualized by flooding the plate with 10 percent cetyl trimethyl ammonium bromide. The area of the zone is logarithmically proportional to the concentration of hyaluronidase. Inhibitor activity is determined by comparing the area of hydrolysis from the test compound to the area of hydrolysis from the control. The results are expressed as percent inhibition calculated as follows: [formula]

[2] = biological target: T2, Acrosin (purified from boar sperm) (Sus scrofa, UniProt P08001); assay: Acrosin inhibition in vitro (BAPNA substrate); type: biochemical; settings: for Inhibition (units/mg): Other salts ROSO3M, Conc. of Test Sol. 10 mg/ml
T2 construct: Acrosin (200 μl, purified from boar sperm); from tissue; host or cells: boar sperm
T2 sequence (P08001 17-415): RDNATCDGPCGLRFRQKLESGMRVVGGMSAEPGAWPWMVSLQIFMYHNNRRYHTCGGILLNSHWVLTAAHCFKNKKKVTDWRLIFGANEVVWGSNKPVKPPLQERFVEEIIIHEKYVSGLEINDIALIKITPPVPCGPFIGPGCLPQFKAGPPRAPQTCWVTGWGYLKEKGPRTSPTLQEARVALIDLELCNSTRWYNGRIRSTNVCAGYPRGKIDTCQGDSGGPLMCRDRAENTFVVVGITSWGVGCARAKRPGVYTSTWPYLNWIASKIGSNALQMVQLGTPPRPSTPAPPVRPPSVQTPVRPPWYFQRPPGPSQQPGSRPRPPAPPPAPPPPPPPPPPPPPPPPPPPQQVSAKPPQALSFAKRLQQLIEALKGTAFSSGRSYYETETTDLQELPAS
Description: The inhibition of acrosin is assessed in vitro using benzoyl arginine p-nitroanilide (BAPNA) as the enzyme substrate according to the following procedure. Acrosin (200 μl, purified from boar sperm) and a solution of the test compound (200 μl, 10 mg/ml., or 50 μl, 1 mg/ml) in 0.05 M triethanolamine buffer, pH 7.8, are incubated at room temperature for 5 minutes. A control using the buffer solution without the test compound added is also run. A 200 μl-sample of the incubation mixture is then withdrawn and is added to a cuvettecontaining BAPNA (1 ml) and triethanolamine buffer (2 ml). The mixture is stirred and placed in a Gilford recording spectrophotometer. The increase in optical density at 383 mn is measured. One unit of acrosin activity is defined as the amount of acrosin which will cause an increase in optical density at 383 mn of 0.001/minute. One unit of inhibitory activity is defined as the amount of inhibitor which will cause a reduction in the increase in optical density at 383 nm of 0.001/minute.

[3] = system: Dutch Belted male rabbits of proven fertility; assay: Antifertility effects in vivo, oral dosing of male rabbits; parameters: species or system rabbit; settings: administered to male rabbits, procedures of Example 4
Description: The animals (of proven fertility) are then bred and the genital system of the females is examined to determine the number of embryos.
Dutch Belted male rabbits of proven fertility were randomly selected. They were given 10 mg/kg tetradecyl sodium sulfate suspended in Ca++ free Ringer's solution by gavage. Control animals were given Ca++ free Ringer's solution by gavage. The male rabbits were dosed each day for 3 days and they were bred to females 2 hours after dosing and again 8 hours after dosing. The female rabbits were then given 100 IU human chorionic gonadotrophin (HCG) to stimulate ovulation. Twenty four hours after the last dose of tetradecyl sodium sulfate the male rabbits were bred and the females treated as before. After twelve days the female rabbits were sacrificed and examined for embryos.

[4] = Other salts ROSO3M, Conc. of Test Sol. 10 (mg/ul)
[5] = Conc. of Test Solution 10 Mg/ml

| Molecule | % Inhibition ([1]; Conc. of Test Solution 1 Mg/ml) [%] | also measured |
| --- | --- | --- |
| CCCCCCCCCCC(CCCCCCCC)COS(=O)(=O)O (stereo not shown) [2-octyldodecyl] | 0 |  |
| CC(C)CCCC(C)CCCC(C)CCOS(=O)(=O)[O-].[Na+] (stereo not shown) [3,7,11-trimethyldodecyl] | 39 |  |
| CC(C)CCCCCCCCCCCOS(=O)(=O)O [12-methyltridecyl] | 7 |  |
| CCCCCCCCCCCCOS(=O)(=O)O.OCCNCCO [CH3(CH2)11— diethanol-ammonium] |  | Inhibition (units/mg) [2]: 90,000 units/mg; % Inhibition [1, 4]: 100% |
| CCCCCCCCCCCCOS(=O)(=O)O.OCCN(CCO)CCO [CH3(CH2)11— triethanol-ammonium] |  | Inhibition (units/mg) [2]: 90,000 units/mg; % Inhibition [1, 4]: 100% |
| CCCCCCCCCCCCC(C)OS(=O)(=O)O (stereo not shown) [Compound 2-tetradecyl] | 100 |  |
| CCCCCCCCCCC(CCC)OS(=O)(=O)[O-].[Na+] (stereo not shown) [Compound 4-tetradecyl] | 0 |  |
| CCCCCCCCC(CCCCC)OS(=O)(=O)O (stereo not shown) [Compound 6-tetradecyl] | 12 |  |
| CCCCCCCCCC(CCCCCC)OS(=O)(=O)O (stereo not shown) [Compound 7-hexadecyl] | 0 |  |
| CCCCCCCC(CCCCCC)OS(=O)(=O)O (stereo not shown) [Compound 7-tetradecyl] | 0 |  |
| CCCCCCCCC(CCCCCCC)OS(=O)(=O)O (stereo not shown) [Compound 8-hexadecyl] | 0 |  |
| CCCCCCCCCC(CCCCCCCC)OS(=O)(=O)O (stereo not shown) [Compound 9-octadecyl] | 7 |  |
| O=S(=O)([O-])Oc1ccc(OS(=O)(=O)[O-])c2ccccc12.[Na+].[Na+] [Compound 28] |  | acrosin inhibition activity (in words) [2]: The following compounds have also been found to have acrosin inhibition |
| O=S(=O)([O-])Oc1c[nH]c2ccccc12.[Na+] [Compound 29] |  | acrosin inhibition activity (in words) [2]: The following compounds have also been found to have acrosin inhibition |
| CCCCC/C=C\C/C=C\CCCCCCCCOS(=O)(=O)O [linoleyl] | 0 |  |
| CCCC/C=C/CCCCCCCCOS(=O)(=O)[O-].[Na+] [myristeladyl] | 13 |  |

| Molecule | % Inhibition ([1]; Conc. of Test Solution 1 Mg/ml) [%] | also measured |
| --- | --- | --- |
| CCCC/C=C\CCCCCCCCOS(=O)(=O)O [myristoleyl] | 13 |  |
| CCCCCCCCCCCCCCCCCCCCCCOS(=O)(=O)O [n-docosyl] | 0 |  |
| CCCCCCCCCCCCOS(=O)(=O)[O-].[Na+] [n-dodecyl] |  | Inhibition (units/mg.) [2, 5]: 0 units/mg.; % Inhibition [1, 5]: 71% |
| CCCCCCCCCCCCCCCCCCCCOS(=O)(=O)O [n-eicosyl] |  | % Inhibition [1, 5]: 0% |
| CCCCCCCCCCCOS(=O)(=O)O [n-hendecyl] |  | % Inhibition [1, 5]: 100% |
| CCCCCCCCCCCCCCCCCCCCCCCCCCCOS(=O)(=O)O [n-heptacosyl] | 0 |  |
| CCCCCCCCCCCCCCCCCOS(=O)(=O)O [n-heptadecyl] |  | % Inhibition [1, 5]: 23% |
| CCCCCCCCCCCCCCCCOS(=O)(=O)O [n-hexadecyl] |  | % Inhibition [1, 5]: 75% |
| CCCCCCCCCCCCCCCCCCOS(=O)(=O)O [n-octadecyl] |  | % Inhibition [1, 5]: 30% |
| CCCCCCCCCCCCCCCOS(=O)(=O)O [n-pentadecyl] |  | % Inhibition [1, 5]: 60% |
| CCCCCCCCCCCCCCCCCCCCCCCCOS(=O)(=O)O [n-tetracosyl] | 0 |  |
| CCCCCCCCCCCCCOS(=O)(=O)O [n-tridecyl] |  | % Inhibition [1, 5]: 80% |
| CCCCCCCC/C=C\CCCCCCCCOS(=O)(=O)O [oleyl] | 0 |  |
| CC(C)CCCC(C)CCOS(=O)(=O)O (stereo not shown) [tetrahydrogeranyl] | 0 |  |
| a ethyl a sulfodocosanoate [Compound 31] |  | activity as male contraceptives [3]: activity as male contraceptives |
